USRE50631E1, “ROR1 antibody immunoconjugates” (VelosBio Inc., priority 2017, dated 2025)
Several values for one entry are separate records, joined by “and”; a condition that tells them apart may be missing. Equal values may be shown once. Non-standard residues stand in square brackets, D forms with d. Residues, ends and D or L forms follow the SMILES beside them. *: point of attachment. Dolaproine = CO[C@@H]([C@@H]1CCCN1)[C@@H](C)C(=O)O; Dil = CC[C@H](C)[C@H](NC)[C@@H](CC(=O)O)OC; X1 = C[C@@H](N*)[C@@H](O)c1ccccc1; NMeV = CN[C@H](C(=O)O)C(C)C

Legend:
A549 = experiment: Cytotoxicity in vitro (CellTiter-Glo viability), A549; assay type: cell-based, human; conditions: A549 (NSCLC), 72 hours
Hep-3B = experiment: Cytotoxicity in vitro (CellTiter-Glo viability), Hep-3B; assay type: cell-based; conditions: Homo sapiens, Hep3B; Hep-3B (HCC), 72 hours
JHOM1 = experiment: Cytotoxicity in vitro (CellTiter-Glo viability), JHOM1; assay type: cell-based, human; conditions: JHOM1 (Ovarian), 72 hours
Method: (§5) Cells were grown and distributed into 96-well plates as described in Example 5. Cells in duplicate were incubated with 3-fold serial dilution of a particular immunoconjugate (660, 220, 73.3, 24.4, 8.14, 2.71, 0.91, and 0.3 nM) for 72 hours at 37° C. and 5% CO2. […] After treatment, cell viability was determined as described in Example 5.

HCC1187 = experiment: Cytotoxicity in vitro (CellTiter-Glo viability), HCC1187; conditions: read-out: EC50 (nM), cytotoxicity in vitro; HCC1187 (TNBC), 72 hours
Method: (§1) ROR1 binding by these conjugates was tested in cell culture to define the potency of various linker-cytotoxic agent combinations. Three different types of cancer cell lines were tested: B-lymphoma cell-lines TMD-8, HBL-1, and DOHH2; triple negative breast cancer cell lines HCC1187, MDA-MB-468, Bt549; and ovarian cancer cell lines A2008, TOV112D, JHOM1, and SKOvr3.
(§2) Cells were cultured in log phase growth and distributed into 96-well plates. Each cell line was plated at a slightly different cell density, ranging from 5×10^3 to 50×10^4 cells/well. Cells in duplicate were incubated with 3-fold serial dilution of a particular immunoconjugate (10, 3.33, 1.11, 0.37, 0.12, 0.041, 0.014, and 0.0045 μM) for 72 hours at 37° C. and 5% CO2. After treatment, cells were incubated with an equal volume of CellTiter-Glo® reagent (Promega Inc.) for 15 minutes at room temperature and viability was determined by a luminometer. Curves and EC50 values were generated in GraphPad Prism using a sigmoidal dose response non-linear regression fit.
(§3) Cells were grown and distributed into 96-well plates as described in Example 5. […] After treatment, cell viability was determined as described in Example 5. Cell surface ROR1 expression was assessed by quantitative flow cytometry and ROR1 expression was characterized as MFI>30 or MFI<30 (MFI: mean fluorescent intensity).

TMD-8 = experiment: Cytotoxicity in vitro (CellTiter-Glo viability), TMD-8; assay type: cell-based, human; conditions: TMD-8 (DLBCL), 72 hours
Method: as §5

TOV112D = experiment: Cytotoxicity in vitro (CellTiter-Glo viability), TOV112D; assay type: cell-based, human; conditions: TOV112D (Ovarian), 72 hours
Method: as §5

OvCar4 = experiment: Cytotoxicity in vitro (CellTiter-Glo viability), OvCar4; assay type: cell-based, human; conditions: OvCar4 (Ovarian), 72 hours
HBL-1 = experiment: Cytotoxicity in vitro (CellTiter-Glo viability), HBL-1; assay type: cell-based, human; conditions: HBL-1 (DLBCL), 72 hours
Bt549 = experiment: Cytotoxicity in vitro (CellTiter-Glo viability), Bt549; assay type: cell-based, human; conditions: Bt549 (TNBC), 72 hours
Method: as §5

SKOvr3 = experiment: Cytotoxicity in vitro (CellTiter-Glo viability), SKOvr3; assay type: cell-based, human; conditions: SKOvr3 (Ovarian), 72 hours
Method: as §5

MDA-MB-468 = experiment: Cytotoxicity in vitro (CellTiter-Glo viability), MDA-MB-468; conditions: read-out: EC50 (nM), cytotoxicity in vitro; MDA-MB-468 (TNBC), 72 hours
Method: as §1, §2, §3

DOHH2 = conditions: read-out: EC50 (nM), cytotoxicity in vitro; DOHH2 (DLBCL), 72 hours
Method: as §1, §2, §3

MDA-MB-231 = experiment: Cytotoxicity in vitro (CellTiter-Glo viability), MDA-MB-231; assay type: cell-based, human; conditions: MDA-MB-231 (TNBC), 72 hours
H460 = experiment: Cytotoxicity in vitro (CellTiter-Glo viability), H460; assay type: cell-based, human; conditions: H460 (NSCLC), 72 hours
DU4475 = experiment: Cytotoxicity in vitro (CellTiter-Glo viability), DU4475; assay type: cell-based, human; conditions: DU4475 (TNBC), 72 hours
FaDu = assay type: cell-based, human; conditions: FaDu (HN), 72 hours; read-out: EC50 (nM), cytotoxicity in vitro
Hep-G2 = assay type: cell-based, human; conditions: Hep-G2 (HCC), 72 hours; read-out: EC50 (nM), cytotoxicity in vitro
HOS = experiment: Cytotoxicity in vitro (CellTiter-Glo viability), HOS; assay type: cell-based, human; conditions: HOS (OS), 72 hours
ES2 = experiment: Cytotoxicity in vitro (CellTiter-Glo viability), ES2; assay type: cell-based, human; conditions: ES2 (Ovarian), 72 hours
Bx-PC3 = experiment: Cytotoxicity in vitro (CellTiter-Glo viability), Bx-PC3; assay type: cell-based, human; conditions: Bx-PC3 (Pancreatic), 72 hours
A2780 = experiment: Cytotoxicity in vitro (CellTiter-Glo viability), A2780; assay type: cell-based, human; conditions: A2780 (Ovarian), 72 hours
U2OS = assay type: cell-based, human; conditions: U2OS (OS), 72 hours; read-out: EC50 (nM), cytotoxicity in vitro
U2932 = experiment: Cytotoxicity in vitro (CellTiter-Glo viability), U2932; assay type: cell-based, human; conditions: U2932 (DLBCL), 72 hours
Mec-ROR = experiment: Cytotoxicity in vitro (CellTiter-Glo viability), Mec-ROR; conditions: read-out: EC50 (nM), cytotoxicity in vitro; Mec-ROR (CLL), 72 hours
Method: as §2
(§4) Cells were grown and distributed into 96-well plates as described in Example 5. Cells in duplicate were incubated with 3-fold serial dilution of a particular immunoconjugate (660, 220, 73.3, 24.4, 8.14, 2.71, 0.91, and 0.3 nM) for 72 hours at 37° C. and 5% CO2. In some experiments, cells were incubated with an immunoconjugate for 96 hours instead of 72 hours (values highlighted with “*”). After treatment, cell viability was determined as described in Example 5. Cell surface ROR1 expression was assessed by quantitative flow cytometry and ROR1 expression was characterized as MFI>30 or MFI<30 (MFI: mean fluorescent intensity). […]

SAOS = experiment: Cytotoxicity in vitro (CellTiter-Glo viability), SAOS; assay type: cell-based, human; conditions: SAOS (OS), 72 hours
As-PC1 = experiment: Cytotoxicity in vitro (CellTiter-Glo viability), As-PC1; assay type: cell-based, human; conditions: As-PC1 (Pancreatic), 72 hours
HCC1937 = experiment: Cytotoxicity in vitro (CellTiter-Glo viability), HCC1937; assay type: cell-based, human; conditions: HCC1937 (TNBC), 72 hours
WSU-DLCL = experiment: Cytotoxicity in vitro (CellTiter-Glo viability), WSU-DLCL; assay type: cell-based, human; conditions: WSU-DLCL (DLBCL), 72 hours
Mec-vector = experiment: Cytotoxicity in vitro (CellTiter-Glo viability), Mec-vector; conditions: read-out: EC50 (nM), cytotoxicity in vitro; Mec-vector (CLL), 72 hours
Method: as §2, §4

Q: With `CN(C)CCN1C(=O)c2cccc3cc4ccccc4c(c23)C1=O` [Azonafide, azonafide, reference compound] as the molecule, how does the EC50 (A549; Homo sapiens) read?
A: The EC50 was > 1000 nM.

Q: And the EC50 (Hep-3B)?
A: Its EC50 is > 1000 nM.

Q: What does the source list for `COc1cc2cc(c1Cl)N(C)C(=O)C[C@H](OC(=O)[C@H](C)N(C)C(=O)CCS)[C@]1(C)O[C@H]1[C@H](C)[C@@H]1C[C@@](O)(NC(=O)O1)[C@H](OC)/C=C/C=C(\C)C2` [DM1, N2′-Deacetyl-N2′-(3-mercaptol-oxopropyl)maytansine]?
A: EC50 (JHOM1): 0.01 nM; EC50 (HCC1187): 3.9 nM; EC50 (TMD-8): 1.4 nM; EC50 (TOV112D): 2.4 nM; EC50 (OvCar4): > 1000 nM; EC50 (HBL-1): 9.3 nM; EC50 (Bt549): 0.047 nM; EC50 (SKOvr3): 9.1 nM; EC50 (MDA-MB-468): 15.2 nM; EC50 (DOHH2): 1.78 nM

Q: With `COc1cccc2c1C(=O)c1c(O)c3c(c(O)c1C2=O)C[C@@](O)(C(=O)CO)C[C@@H]3O[C@H]1C[C@H]2[C@H](O[C@@H]3[C@@H](OC)OCCN32)[C@H](C)O1` [PNU-159682, reference compound] as the molecule, how does the EC50 (MDA-MB-231) read?
A: The EC50 was 0.005 nM.

Q: And the EC50 (H460)?
A: Its EC50 is 0.001 nM and 0.002 nM.

Q: Which results are given for `CC[C@H](C)[C@@H]([C@@H](CC(=O)N1CCC[C@H]1[C@H](OC)[C@@H](C)C(=O)N[C@H](C)[C@@H](O)c1ccccc1)OC)N(C)C(=O)[C@@H](NC(=O)[C@@H](NC)C(C)C)C(C)C` [MMAE, monomethyl auristatin E, reference compound] (H-[NMeV]V[Dil][Dolaproine]-X1)?
A: EC50 (DU4475): 2.5 nM; EC50 (FaDu): > 1000 nM; EC50 (JHOM1): 0.01 nM; EC50 (Hep-G2): > 1000 nM; EC50 (A549): 0.06 nM; EC50 (HOS): 0.06 nM; EC50 (TOV112D): 0.04 nM; EC50 (ES2): 1.1 nM; EC50 (Bx-PC3): 0.04 nM; EC50 (OvCar4): 24.2 nM; EC50 (A2780): 0.08 nM; EC50 (U2OS): 1.2 nM; EC50 (Bt549): 0.047 nM; EC50 (U2932): 0.006 nM; EC50 (Mec-ROR): 0.6 nM; EC50 (SAOS): 0.05 nM; EC50 (As-PC1): 0.04 nM; EC50 (SKOvr3): 0.01 nM; EC50 (DOHH2): 0.007 nM; EC50 (HCC1937): > 1000 nM; EC50 (WSU-DLCL): 0.06 nM; EC50 (Mec-vector): 0.5 nM
